These results are taken from patent US8278473B2, “Alpha, beta-unsaturated imidate compound and pesticidal composition containing the same” (Sumitomo Chemical Company, Limited, priority 2007, dated 2012).

In the experiment the test system is Haemaphysalis longicornis. As to the kind of experiment: Test Example 10: Haemaphysalis longicornis, treated filter paper pouch. The following applies: 0.5 mg compound on filter paper 5×10 cm; non-blood sucking nymphal ticks; after 2 days. In kind it is in vivo. On the procedure:
In 1 mL of acetone, 0.5 mg of any one of the present compounds 1 to 48 was dissolved, and the solution was spread uniformly on one side of a filter paper (TOYO No. 2; 5×10 cm). After dried, the filter paper was folded into two, and the sides were clipped to make a pouch. Into the pouch, tested ticks (Haemaphysalis longicornis, non-blood sucking nymphal ticks, 10 ticks in a group) were placed. The pouch was clipped and sealed. After 2 days, the number of dead ticks was counted.

Regarding `COc1cccc(OC(=Nc2ccccc2)C(C)=COc2ccccc2OC)c1` [Compound 236, 3-methoxyphenyl 3-(2-methoxyphenyloxy)-2-methyl-N-phenyl-2-propenimidate], the death rate is 100%.

In turn, `CC(=COc1ccc(Cl)cc1)C(=Nc1ccccc1)Oc1ccccc1` [Compound 231, phenyl 3-(4-chlorophenyloxy)-2-methyl-N-phenyl-2-propenimidate] came in with a death rate of 100%.

The molecule `COc1ccc(N=C(Oc2ccccc2)C(C)=COc2ccccc2OC)cc1` [Compound 245, phenyl N-(4-methoxyphenyl)-3-(2-methoxyphenyloxy)-2-methyl-2-propenimidate] yielded a death rate of 100%.

As for `CC(=COc1ccc(C)cc1)C(=Nc1ccccc1)Oc1cccc(F)c1` [Compound 198, 3-fluorophenyl 2-methyl-3-(4-methylphenyloxy)-N-phenyl-2-propenimidate], the death rate is reported as 100%.

In the case of `COc1ccccc1OC=C(C)C(=Nc1ccccc1)Oc1cccc(C)c1` [Compound 233, 3-methylphenyl 3-(2-methoxyphenyloxy)-2-methyl-N-phenyl-2-propenimidate], the death rate worked out at 100%.

`COc1ccc(OC=C(C)C(=Nc2ccccc2)Oc2ccccc2)cc1` [Compound 262, phenyl 3-(4-methoxyphenyloxy)-2-methyl-N-phenyl-2-propenimidate] returned a death rate of 100%.

The molecule `COc1ccc(N=C(Oc2cccc(C)c2)C(C)=COc2ccccc2OC)cc1` [Compound 246, 3-methylphenyl N-(4-methoxyphenyl)-3-(2-methoxyphenyloxy)-2-methyl-2-propenimidate] gave a death rate of 100%.

As to `COc1ccccc1OC=C(C)C(=Nc1ccc(C)cc1)Oc1ccccc1` [Compound 239, phenyl 3-(2-methoxyphenyloxy)-2-methyl-N-(4-methylphenyl)-2-propenimidate], the death rate came to 100%.

In turn, `COc1ccc(OC(=Nc2ccccc2)C(C)=COc2ccc(C)cc2)cc1` [Compound 205, 4-methoxyphenyl 2-methyl-3-(4-methylphenyloxy)-N-phenyl-2-propenimidate] gave a death rate of 100%.

In turn, `COc1ccc(N=C(Oc2cccc(C)c2)C(C)=COc2cccc(C)c2)cc1` [Compound 189, 3-methylphenyl N-(4-methoxyphenyl)-2-methyl-3-(3-methylphenyloxy)-2-propenimidate] gave a death rate of 100%.

The molecule `CC(=COc1cccc(C)c1)C(=Nc1ccccc1)Oc1ccccc1` [Compound 175, phenyl 2-methyl-3-(3-methylphenyloxy)-N-phenyl-2-propenimidate] yielded a death rate of 100%.

Molecule `CCC(=COc1ccccc1)C(=Nc1ccccc1)Sc1ccccc1` [Compound 300, phenyl 2-ethyl-3-phenoxy-N-phenyl-2-propenimidothioate] registered a death rate of 100%.

Regarding `CC(=COc1cccc(C)c1)C(=Nc1ccccc1)Oc1cccc(C(C)C)c1` [Compound 178, 3-isopropylphenyl 2-methyl-3-(3-methylphenyloxy)-N-phenyl-2-propenimidate], the death rate came to 100%.

Molecule `COc1cccc(OC=C(C)C(=Nc2ccccc2)Oc2ccccc2)c1` [Compound 257, phenyl 3-(3-methoxyphenyloxy)-2-methyl-N-phenyl-2-propenimidate] showed a death rate of 100%.

With `CC(=COc1ccc(C(C)C)cc1)C(=Nc1ccccc1)Oc1ccccc1` [Compound 230, phenyl 3-(4-isopropylphenyloxy)-2-methyl-N-phenyl-2-propenimidate], the death rate worked out at 100%.

With `COc1ccccc1OC=C(C)C(=Nc1ccccc1)Oc1ccccc1` [Compound 232, phenyl 3-(2-methoxyphenyloxy)-2-methyl-N-phenyl-2-propenimidate], the death rate is recorded as 100%.

The molecule `COc1ccc(N=C(Oc2cccc(C)c2)C(C)=COc2ccc(C)cc2)cc1` [Compound 225, 3-methylphenyl N-(4-methoxyphenyl)-2-methyl-3-(4-methylphenyloxy)-2-propenimidate] gave a death rate of 100%.

`CC(=COc1cccc(C)c1)C(=Nc1ccccc1)Oc1cc(C)cc(C)c1` [Compound 182, 3,5-dimethylphenyl 2-methyl-3-(3-methylphenyloxy)-N-phenyl-2-propenimidate] came in with a death rate of 100%.

Molecule `CCc1cccc(OC(=Nc2ccc(C)cc2)C(C)=COc2ccc(OC)cc2)c1` [Compound 272, 3-ethylphenyl 3-(4-methoxyphenyloxy)-2-methyl-N-(4-methylphenyl)-2-propenimidate] displayed a death rate of 100%.

`CC(=COc1ccc(C)cc1)C(=Nc1ccc(C)cc1)Oc1ccc(F)cc1` [Compound 215, 4-fluorophenyl 2-methyl-N-(4-methylphenyl)-3-(4-methylphenyloxy)-2-propenimidate] yielded a death rate of 100%.

Take `COc1ccccc1OC=C(C)C(=Nc1ccc(C)cc1)Oc1cc(C)cc(C)c1` [Compound 244, 3,5-dimethylphenyl 3-(2-methoxyphenyloxy)-2-methyl-N-(4-methylphenyl)-2-propenimidate]: the death rate is on record as 100%.

`CCc1cccc(OC(=Nc2ccccc2)C(C)=COc2cccc(C)c2)c1` [Compound 177, 3-ethylphenyl 2-methyl-3-(3-methylphenyloxy)-N-phenyl-2-propenimidate] returned a death rate of 100%.

`CC(=COc1ccc(C)cc1)C(=Nc1ccc(C)cc1)Oc1cccc(F)c1` [Compound 214, 3-fluorophenyl 2-methyl-N-(4-methylphenyl)-3-(4-methylphenyloxy)-2-propenimidate] yielded a death rate of 100%.

`CCc1cccc(OC(=Nc2ccccc2)C(C)=COc2ccccc2OC)c1` [Compound 234, 3-ethylphenyl 3-(2-methoxyphenyloxy)-2-methyl-N-phenyl-2-propenimidate]: the death rate is reported as 100%.

`CC(=COc1cccc(C)c1)C(=Nc1ccccc1)Oc1cccc(C)c1` [Compound 176, 3-methylphenyl 2-methyl-3-(3-methylphenyloxy)-N-phenyl-2-propenimidate] gave a death rate of 100%.

`CC(=COc1cccc(C)c1)C(=Nc1ccc(C)cc1)Oc1cccc(C)c1` [Compound 184, 3-methylphenyl 2-methyl-N-(4-methylphenyl)-3-(3-methylphenyloxy)-2-propenimidate] came in with a death rate of 100%.

The molecule `COc1ccc(OC=C(C)C(=Nc2ccc(C)cc2)Oc2cccc(C)c2)cc1` [Compound 270, 3-methylphenyl 3-(4-methoxyphenyloxy)-2-methyl-N-(4-methylphenyl)-2-propenimidate] registered a death rate of 100%.

Regarding `COc1ccc(OC=C(C)C(=Nc2ccccc2)Oc2cccc(OC)c2)cc1` [Compound 266, 3-methoxyphenyl 3-(4-methoxyphenyloxy)-2-methyl-N-phenyl-2-propenimidate], the death rate is given as 100%.

`CC(=COc1ccc(C)cc1)C(=Nc1ccccc1)Oc1cccc(C(F)(F)F)c1` [Compound 206, 3-(trifluoromethyl)phenyl 2-methyl-3-(4-methylphenyloxy)-N-phenyl-2-propenimidate] displayed a death rate of 100%.

Take `CCc1cccc(OC(=Nc2ccc(OC)cc2)C(C)=COc2ccccc2OC)c1` [Compound 247, 3-ethylphenyl N-(4-methoxyphenyl)-3-(2-methoxyphenyloxy)-2-methyl-2-propenimidate]: the death rate was found to be 100%.
